Activity calls are given as the source filed them. The rule behind the calls is not given here.
Key:
Caspase-3 = molecular target: T1, Caspase-3 (Homo sapiens, UniProt P42574); experiment: Inhibition of His-tagged human recombinant caspase 3 expressed in Escherichia coli using acetyl-Asp-Glu-Val-Asp-7- amido-4-methylcoumarin (Ac-DEVD-AMC) as substrate by fluorimetric assay
T1 sequence (P42574 whole entry): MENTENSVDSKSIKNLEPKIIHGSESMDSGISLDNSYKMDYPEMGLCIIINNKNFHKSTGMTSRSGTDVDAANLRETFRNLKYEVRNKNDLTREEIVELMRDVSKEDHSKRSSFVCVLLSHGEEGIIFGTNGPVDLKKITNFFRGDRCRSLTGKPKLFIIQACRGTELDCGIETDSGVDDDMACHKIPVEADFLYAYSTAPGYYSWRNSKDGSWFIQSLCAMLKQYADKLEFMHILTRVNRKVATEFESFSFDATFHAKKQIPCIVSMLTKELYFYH

Caspase-7 = molecular target: T2, Caspase-7 (Homo sapiens, UniProt P55210); experiment: Inhibition of His-tagged human recombinant caspase 7 expressed in Escherichia coli using acetyl-Asp-Glu-Val-Asp-7- amido-4-methylcoumarin (Ac-DEVD-AMC) as substrate by fluorimetric assay
T2 sequence (P55210 whole entry): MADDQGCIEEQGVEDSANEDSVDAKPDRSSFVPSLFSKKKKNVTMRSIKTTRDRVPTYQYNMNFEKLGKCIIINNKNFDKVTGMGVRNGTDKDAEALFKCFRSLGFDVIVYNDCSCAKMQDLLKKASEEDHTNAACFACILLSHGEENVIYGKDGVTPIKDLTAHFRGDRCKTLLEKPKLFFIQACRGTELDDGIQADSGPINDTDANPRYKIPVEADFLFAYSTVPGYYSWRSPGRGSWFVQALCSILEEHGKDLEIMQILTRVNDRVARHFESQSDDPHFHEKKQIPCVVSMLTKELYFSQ

Rattus norvegicus [1] = experiment: Neuroprotective activity in hypoxic-ischemic ip dosed neonatal Sprague-Dawley rat brain assessed as decrease in MDA levels administered 15 mins prior to examination measured after 48 hrs by thiobarbituric acid method; assay type: functional, organism-based
Rattus norvegicus [2] = experiment: Neuroprotective activity in hypoxic-ischemic ip dosed neonatal Sprague-Dawley rat brain assessed as increase in GSH-Px levels administered 15 mins prior to examination measured after 48 hrs by microplate reader based method; assay type: functional, organism-based
Rattus norvegicus [3] = experiment: Neuroprotective activity in hypoxic-ischemic neonatal Sprague-Dawley rat brain assessed as reduction in interstitial edema at 30 mg/kg, ip administered 15 mins prior to examination measured after 48 hrs by hematoxylin/eosin staining based microscopic analysis; assay type: functional, organism-based
Rattus norvegicus [4] = experiment: Neuroprotective activity in hypoxic-ischemic ip dosed neonatal Sprague-Dawley rat brain assessed as increase in SOD levels administered 15 mins prior to examination measured after 48 hrs by microplate reader based method; assay type: functional, organism-based
Rattus norvegicus [5] = species on record: Rattus norvegicus; settings: Sprague-Dawley, Brain, 30 mg/kg
Description: Neuroprotective activity in hypoxic-ischemic neonatal Sprague-Dawley rat brain assessed as inhibition of elevated caspase 3 expression levels at 30 mg/kg, ip administered 15 mins prior to examination measured after 48 hrs by Western blot analysis

Rattus norvegicus [6] = experiment: Neuroprotective activity in hypoxic-ischemia-induced neonatal Sprague-Dawley rat brain assessed as reduction brain infarction at 10 mg/kg, ip administered 15 mins prior to examination by microscopic analysis; assay type: functional, organism-based
Rattus norvegicus [7] = experiment: Neuroprotective activity in hypoxic-ischemic ip dosed neonatal Sprague-Dawley rat brain assessed as increase in T-AOC levels administered 15 mins prior to examination measured after 48 hrs by microplate reader based method; assay type: functional, organism-based
Rattus norvegicus [8] = experiment: Neuroprotective activity in hypoxic-ischemic Sprague-Dawley rat brain assessed as reduction in disruption of cell organelles at 30 mg/kg, ip administered 15 mins prior to examination measured after 48 hrs by transmission electron microscopic analysis; assay type: functional, organism-based
Rattus norvegicus [9] = experiment: Neuroprotective activity in hypoxic-ischemic Sprague-Dawley rat brain assessed as regular shape of nucleus at 30 mg/kg, ip administered 15 mins prior to examination measured after 48 hrs by transmission electron microscopic analysis; assay type: functional, organism-based
Rattus norvegicus [10] = experiment: Neuroprotective activity in hypoxic-ischemic ip dosed neonatal Sprague-Dawley rat brain assessed as increase in CAT levels administered 15 mins prior to examination measured after 48 hrs by microplate reader based method; assay type: functional, organism-based
Rattus norvegicus [11] = experiment: Neuroprotective activity in hypoxic-ischemia-induced neonatal Sprague-Dawley rat brain assessed as reduction brain infarction at 20 mg/kg, ip administered 15 mins prior to examination by microscopic analysis; assay type: functional, organism-based
Rattus norvegicus [12] = experiment: Neuroprotective activity in hypoxic-ischemic-induced neonatal Sprague-Dawley rat brain assessed as reduction brain infarction at 30 mg/kg, ip administered 15 mins prior to examination by microscopic analysis; assay type: functional, organism-based
Rattus norvegicus [13] = experiment: Neuroprotective activity in hypoxic-ischemic neonatal Sprague-Dawley rat brain assessed as distribution of neurons in cortex at 30 mg/kg, ip administered 15 mins prior to examination measured after 48 hrs by hematoxylin/eosin staining based microscopic analysis; assay type: functional, organism-based

Row | SMILES | IC50 (Caspase-3) [µM] | IC50 (Caspase-7) [µM] | also measured
1 | Cc1nc(-c2ccc(Br)cc2)ccc1C(=O)N/N=C1\C(=O)N(C)c2ccccc21 | 122 |  | 
2 | Cc1nc(-c2ccccc2Br)ccc1C(=O)N/N=C1\C(=O)N(C)c2ccccc21 | 132 |  | 
3 | CC(=O)N[C@@H](CC(=O)O)C(=O)N[C@@H](CCC(=O)O)C(=O)N[C@H](C(=O)N[C@H](C=O)CC(=O)O)C(C)C |  | 0.0604 | 
4 | COc1ccc(-c2ccc(C(=O)N/N=C3\C(=O)N(C)c4ccccc43)c(C)n2)cc1 | 487 | > 200 | 
5 | COc1ccccc1-c1ccc(C(=O)N/N=C2\C(=O)N(C)c3ccccc32)c(C)n1 | 552 | > 200 | 
6 | Cc1ccc(-c2ccc(C(=O)N/N=C3\C(=O)N(C)c4ccccc43)c(C)n2)cc1 | 375 |  | 
7 | Cc1nc(-c2cccc(Cl)c2)ccc1C(=O)N/N=C1\C(=O)N(C)c2ccccc21 |  | > 200 | 
8 | Cc1ccccc1-c1ccc(C(=O)N/N=C2\C(=O)N(C)c3ccccc32)c(C)n1 | 351 |  | 
9 | Cc1nc(-c2cccc(Br)c2)ccc1C(=O)N/N=C1\C(=O)N(C)c2ccccc21 | 130 |  | 
10 | Cc1nc(-c2ccc(F)cc2)ccc1C(=O)N/N=C1\C(=O)N(C)c2ccccc21 |  | > 200 | Activity (Rattus norvegicus [1]): Active; Activity (Rattus norvegicus [2]): Dose-dependent effect; Activity (Rattus norvegicus [3]): Active; Activity (Rattus norvegicus [4]): Dose-dependent effect; inhibition (Rattus norvegicus [5]): Active; Activity (Rattus norvegicus [6]): Active; Activity (Rattus norvegicus [7]): Dose-dependent effect; Activity (Rattus norvegicus [8]): Active; Activity (Rattus norvegicus [9]): Active; Activity (Rattus norvegicus [10]): Dose-dependent effect; Activity (Rattus norvegicus [11]): Active; Activity (Rattus norvegicus [12]): Active; Activity (Rattus norvegicus [13]): Active

Further compounds by falling IC50 (Caspase-3), results first:

Row | IC50 (Caspase-3) [µM] | IC50 (Caspase-7) [µM] | SMILES | also measured
11 | 674 |  | COc1cc(-c2ccc(C(=O)N/N=C3\C(=O)N(C)c4ccccc43)c(C)n2)cc(OC)c1OC | 
12 | 599 | > 200 | COc1ccc(-c2ccc(C(=O)N/N=C3\C(=O)N(C)c4ccccc43)c(C)n2)cc1OC | 
13 | 547 | > 200 | COc1cccc(-c2ccc(C(=O)N/N=C3\C(=O)N(C)c4ccccc43)c(C)n2)c1 | 
14 | 456 |  | Cc1nc(-c2ccccc2)ccc1C(=O)N/N=C1\C(=O)N(C)c2ccccc21 | 
15 | 310 |  | Cc1cccc(-c2ccc(C(=O)N/N=C3\C(=O)N(C)c4ccccc43)c(C)n2)c1 | 
16 | 297 | > 200 | Cc1nc(-c2ccccc2[N+](=O)[O-])ccc1C(=O)N/N=C1\C(=O)N(C)c2ccccc21 | 
17 | 278 |  | Cc1nc(-c2cccc([N+](=O)[O-])c2)ccc1C(=O)N/N=C1\C(=O)N(C)c2ccccc21 | 
18 | 202 |  | Cc1nc(-c2ccc([N+](=O)[O-])cc2)ccc1C(=O)N/N=C1\C(=O)N(C)c2ccccc21 | 

Reference: ChEMBL document CHEMBL3804780, “Protective effect of novel substituted nicotine hydrazide analogues against hypoxic brain injury in neonatal rats via inhibition of caspase” (Bioorg Med Chem Lett, 2016)
